Data as given in ChEMBL document CHEMBL2311308, “From partial to full agonism: identification of a novel 2,4,5,6-tetrahydropyrrolo[3,4-c]pyrazole as a full agonist of the human GPR119 receptor” (Bioorg Med Chem Lett, 2013).

Columns and labels:
[1] = physchem; conditions: buffer, pH 7.4
[2] = Intrinsic clearance in human liver microsomes; type: ADME, Microsome; conditions: read-out: CLH
[3] = biological target: T1, Glucose-dependent insulinotropic receptor (Homo sapiens, UniProt Q8TDV5); experiment: Agonist activity at human GPR119 expressed in HEK293 cells co-expressing CRE beta-lactamase assessed as cAMP accumulation by HTRF assay; type: functional, cell-based
T1 sequence (Q8TDV5 whole entry): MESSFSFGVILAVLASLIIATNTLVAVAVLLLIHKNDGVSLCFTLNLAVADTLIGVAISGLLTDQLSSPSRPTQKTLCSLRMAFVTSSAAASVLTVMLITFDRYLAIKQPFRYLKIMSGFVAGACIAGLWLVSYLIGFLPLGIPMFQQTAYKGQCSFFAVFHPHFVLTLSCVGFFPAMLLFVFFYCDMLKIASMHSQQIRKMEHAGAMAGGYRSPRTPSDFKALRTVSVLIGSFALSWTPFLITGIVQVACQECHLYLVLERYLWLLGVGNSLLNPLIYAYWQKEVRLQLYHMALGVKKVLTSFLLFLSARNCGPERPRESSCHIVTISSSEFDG

[4] = biological target: T2, Glucose-dependent insulinotropic receptor (Homo sapiens) (UniProt Q8TDV5); experiment: Intrinsic activity at human recombinant GPR119 expressed in HEK293 cells co-expressing CRE beta-lactamase assessed as cAMP accumulation at 10 uM by HTRF assay relative to control; type: functional, cell-based
T2 sequence (whole entry): T1 sequence (Q8TDV5 whole entry)

Row | logD [1] | microsomal CLint [2] [µL/min/mg] | EC50 [3] [nM] | Intrinsic activity [4] [%] | Compound
1 | 2.9 | 23 | 83 | 118 | CCc1cnc(N2CCC(N3Cc4cn(-c5ccc(S(C)(=O)=O)cc5F)nc4C3)CC2)nc1
2 | 3.2 | 36.1 | 260 | 48 | CC(C)OC(=O)N1CCC(n2cc3c(n2)CN(c2ccc(S(C)(=O)=O)cc2F)C3)CC1
3 | – | 10.5 | 864 | 105 | CC(C)OC(=O)N1CCC(N2Cc3cn(-c4ccc(S(C)(=O)=O)cc4F)nc3C2)CC1
4 | 1.1 | 9.8 | 498 | 107 | CCc1cnc(N2CCC([N+]3([O-])Cc4cn(-c5ccc(S(C)(=O)=O)cc5F)nc4C3)CC2)nc1 (stereo unspecified)

Second part, the compound before the results:

Row | Compound | logD [1] | microsomal CLint [2] [µL/min/mg] | EC50 [3] [nM] | Intrinsic activity [4] [%]
5 | Cc1nc(S(C)(=O)=O)ccc1NCc1cnn(C2CCN(C(=O)OC(C)C)CC2)c1 | 1.6 | – | > 10000 | –
6 | CCc1cnc(OC(=O)N2CCC(n3cc(CNc4ccc(S(C)(=O)=O)cc4F)cn3)CC2)nc1 | 3 | 148 | 47 | 43
7 | CS(=O)(=O)c1ccc(NCc2cnn(C3CCN(C(=O)OC4CCC4)CC3)c2)c(F)c1 | 2.5 | – | 462 | 42
8 | CC(C)COC(=O)N1CCC(n2cc(CNc3ccc(S(C)(=O)=O)cc3F)cn2)CC1 | 2.8 | – | 240 | 24
9 | CC(C)OC(=O)N1CCC(n2cc(CNc3ccc(S(C)(=O)=O)cc3F)cn2)CC1 | 2.3 | 9.7 | 181 | 41
